Among the data in BindingDB's records for doi:10.1016/s0960-894x(01)00648-5 (Merck Research Laboratories, 2001) are IC50 values, retold here.

In assay [1] the target is T1, Genome polyprotein (Human rhinovirus sp., UniProt Q4U254).
T1 sequence (Q4U254 whole entry): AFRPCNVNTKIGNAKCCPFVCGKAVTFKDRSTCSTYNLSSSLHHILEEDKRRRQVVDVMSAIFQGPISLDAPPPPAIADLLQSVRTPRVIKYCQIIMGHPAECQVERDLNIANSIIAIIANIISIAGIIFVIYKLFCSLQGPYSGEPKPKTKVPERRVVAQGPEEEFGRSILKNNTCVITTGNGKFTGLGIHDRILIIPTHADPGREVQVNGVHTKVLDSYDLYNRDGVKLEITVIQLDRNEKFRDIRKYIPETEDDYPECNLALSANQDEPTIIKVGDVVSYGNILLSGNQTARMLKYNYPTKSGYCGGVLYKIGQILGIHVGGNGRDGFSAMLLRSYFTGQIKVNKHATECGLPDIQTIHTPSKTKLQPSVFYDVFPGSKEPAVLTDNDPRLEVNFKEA
As to the kind of experiment: ChEBML_160894. From the text: (§1) Inhibitory activity against HRV 3Cpro using HPLC assay

The target in assay [2] is T2, Genome polyprotein (Human rhinovirus sp., UniProt Q04107).
T2 sequence (Q04107 whole entry): T1 sequence (Q4U254 whole entry)
In words: ChEBML_160894.
From the text: as §1

Usually IC50 stands for the concentration at which inhibition is half-maximal. The low end stands for greater potency, the high end for weaker potency. Regarding `O=C1C(=O)c2ccccc2-c2ccccc21`, the IC50 against Genome polyprotein [1] came out at 1.4 µM.
The same measure, in the same setting: to `COC1=CC(=O)c2ccccc2C1=O` belongs 26 µM; to `O=C1CC(=O)c2ccccc2C1=O`, over 150 µM.
As to `O=C1C=Cc2ccccc2C1=O` [1,2-dihydronaphthalene-1,2-dione], 8.2 µM corresponded to half-maximal inhibition on Genome polyprotein [2] (IC50).
Still for that read-out and setting: to `Cc1cc(O)c2c(c1)C(=O)c1cc(O)cc(O)c1C2=O` [1,3,8-trihydroxy-6-methylanthra-9,10-quinone] belongs over 150 µM.
Consider `O=C1C=CC(=O)c2ccccc21` [1,4-dihydronaphthalene-1,4-dione], for which the IC50 on Genome polyprotein [1] came out at 21 µM.
For `COC1=CC(=O)c2ccc(C)cc2C1=O` [2-Methoxy-7-methyl-[1,4]naphthoquinone], on Genome polyprotein [1], inhibition was half-maximal at 10.5 µM (IC50).
Still for that read-out and setting: the value for `COC1=CC(=O)c2c(O)cc(C)cc2C1=O` [2-methoxy-7-methyljuglone] was 2.4 µM.
On to `Cc1cc(O)c2c(c1)C(=O)C=CC2=O` [5-Hydroxy-7-methyl-[1,4]naphthoquinone], for which, on Genome polyprotein [1], half-maximal inhibition (IC50) was put at 6.4 µM.
Molecule `COC1=CC(=O)c2c(cc(C)c(C(C)=O)c2O)C1=O` [6-Acetyl-5-hydroxy-2-methoxy-7-methyl-[1,4]naphthoquinone] gave an IC50 against Genome polyprotein [1] of 4.6 µM.
Still for that read-out and setting: to `CC(=O)c1c(C)cc2c(c1O)C(=O)C(=O)CC2=O` [7-Acetyl-2,8-dihydroxy-6-methyl-[1,4]naphthoquinone] belongs over 150 µM; to `COC1=CC(=O)c2cc(C)c(C(C)=O)c(OC)c2C1=O` [7-Acetyl-2,8-dimethoxy-6-methyl-[1,4]naphthoquinone], 124 µM.
For the molecule `CC1Cc2cc(O)c3c(c2C(=O)O1)C(=O)C=C(C1=CC(=O)c2c(c(O)cc4c2C(=O)OC(C)C4)C1=O)C3=O` (stereo not drawn) [9,9'-Dihydroxy-2,2'-dimethyl-1,2,1',2'-tetrahydro-[7,7']bi[3-oxa-phenanthrenyl]-4,5,8,4',5',8'-hexaone], inhibition against Genome polyprotein [2] was half-maximal at 6 µM (IC50).
`C[C@@H]1CC2=C(C(=O)c3c(O)cc(O)cc3C2=O)[C@@H](O)O1` [(1S,3R)-1,7,9-Trihydroxy-3-methyl-3,4-dihydro-1H-benzo[g]isochromene-5,10-dione] gave an IC50 at Genome polyprotein [1] of 47 µM.
Molecule `COC1=CC(=O)c2c(cc(C)c(C(C)=O)c2OC(C)=O)C1=O` [Acetic acid 2-acetyl-6-methoxy-3-methyl-5,8-dioxo-5,8-dihydro-naphthalen-1-yl ester] registered an IC50 against Genome polyprotein [1] of 8.1 µM.
Still for that read-out and setting: the value for `COC1=CC(=O)c2c(OC(C)=O)cc(C)cc2C1=O` [Acetic acid 6-methoxy-3-methyl-5,8-dioxo-5,8-dihydro-naphthalen-1-yl ester] was 40 µM; that for `O=C1C=CC(=O)c2c1ccc1c2ccc2ccccc21` [Chrysene-1,4-dione] was 46.5 µM; that for `COc1cc(O)c2c(c1)C(=O)c1cc(C)cc(O)c1C2=O` [physcion] was over 150 µM.
